Measured values reported in PubChem BioAssay AID2060328 (Molecular Pharmacology Branch, DTP, NCI, 2025).

System: MDA-MB-231 multicell spheroids, viability (%T/C)
Assay: Anticancer human tumor MDA-MB-231 cell line growth inhibition [IpAb];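 also: viability read after seven days of drug exposure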;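 as to viability, T/C: 100% = DMSO vehicle control viability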
Conditions: for IC50: curve of first compound; for viability, T/C: stronger effect = lower value
From the text: Combinatorial screen of targeted agents with ipatasertib and abemaciclib in multi-cell type tumor spheroids
A high-throughput screen of multi-cell type tumor spheroids was designed to identify active combinations of targeted small molecules and ipatasertib or abemaciclib. Complex spheroids include a stromal component modeled by human endothelial cells (HUVEC) and fibroblasts modeled by human mesenchymal stem cells (MSCs). The concentration ranges selected for each drug and investigational agent were based upon clinically achievable concentrations if the clinical Cmax of the agent was known.
Compounds. The drugs and investigational agents: ipatasertib (NSC767898), abemaciclib(NSC768073), selumetinib (NSC741078), trametinib (758246), adavosertib (NSC754352), everolimus (NSC733504), sapanisertib (NSC764658), vemurafenib (NSC761431), venetoclax (NSC766270), copanlisib (NSC809693), apelisib (NSC765974), palbociblib (NSC758247), vemurafenib (NSC761431), dabrafenib (NSC764134), ravoxertinib (NSC781343), BMS-387032 (NSC767048), sotorasib (NSC818433), talazoparib (NSC767125) and afursertib (NSC778305), were obtained from the National Cancer Institute (NCI) Developmental Therapeutics Program Chemical Repository. The FDA-approved anticancer drug set is available from the NCI Developmental Therapeutics Program. […] The stock solutions were prepared in dimethyl sulfoxide (DMSO, Sigma-Aldrich, St. Louis, MO, cat. D2650) at 800-fold the tested concentration and stored at -70 degrees C prior to their use. All drugs and investigational agents were tested over a range starting from a high concentration at or near the clinical Cmax and decreasing in half-log increments. If the clinical Cmax for an agent had not been determined, the highest concentration tested was 10 microM.
NCI60 Cell Culture. NCI60 cell lines were obtained from the NCI Developmental Therapeutics Program Tumor Repository. For each lot of cells, the Repository performed Applied Biosystems AmpFLSTR Identifiler testing with PCR amplification to confirm consistency with the published Identifier STR profile for each cell line. Cells were kept in continuous culture for no more than 20 passages. The optimal seeding densities for each of the cell lines at each time point assessed were determined prior to performing the concentration response studies. Briefly, the NCI60 human tumor lines were grown as monolayers in RPMI 1640 medium supplemented with 10% FBS and 2 mmol/L L-glutamine.
An additional 9 lines were from the NCI60 cell line panel including MDA-MB-231 breast carcinoma, MDA-MB-468 breast carcinoma, MCF7 breast carcinoma, Hs578T breast carcinoma, MALME-3M melanoma, SK-MEL-2 melanoma, SK-OV-3 ovarian carcinoma, DU-145 prostate carcinoma, PC-3 prostate carcinoma, all cell lines along with major genetic alterations are listed on Table 2. Pooled donor human umbilical vein endothelial cells (HUVEC, Lonza, cat. CC-2519) and human mesenchymal stem cells (hMSC, Lonza, cat. PT-2501) were purchased from Lonza (Walkersville, MD).
PDMR cell lines were grown in complete medium (DC medium): Dulbecco's modified Eagle's medium (DMEM)/F12 supplemented with 5% fetal bovine serum (FBS), 2 mM L-glutamine, 100 U/mL penicillin and 100 µg/ml streptomycin, 0.4 µg/ml hydrocortisone, 10 ng/ml epidermal growth factor (EGF) recombinant human protein, 24 µg/mL adenine, and 0.1 mg/mL primocin. During culture from frozen stock vials, PDMR cells were cultured in the same medium containing 10 µM Y-27632 (see Table 3). The PDCs were cultured in complete DMEM/F12 media without 10 microM Y-27632 dihydrochloride for at least two passages prior to the screen. The pooled donor HUVEC and hMSC were cultured in endothelial cell growth medium 2 (PromoCell, Heidelberg, Germany, cat. C-22011) and mesenchymal stem cell growth medium 2 (PromoCell, cat. C-28009), respectively. For all experiments, HUVEC and hMSC were used at passages </=5.
[…]

Compound: Cn1cnc2c(F)c(Nc3ccc(Br)cc3Cl)c(C(=O)NOCCO)cc21 + CC(C)NCC(C(=O)N1CCN(c2ncnc3c2C(C)CC3O)CC1)c1ccc(Cl)cc1
- IC50 (second compound 0.1 µM): < 9.49 nM
- IC50 (second compound 0.316 µM): < 9.49 nM
- IC50 (second compound 1 µM): < 9.49 nM
- IC50 (second compound 3.16 µM): < 9.49 nM
- IC50 (second compound 10 µM): < 9.49 nM
- viability, T/C (second compound 0.1 µM, first compound 0.00949 µM): 43.2%
- viability, T/C (second compound 0.1 µM, first compound 0.03 µM): 36.2%
- viability, T/C (second compound 0.1 µM, first compound 0.0949 µM): 34.3%
- viability, T/C (second compound 0.1 µM, first compound 0.3 µM): 27.8%
- viability, T/C (second compound 0.1 µM, first compound 0.949 µM): 23.4%
- viability, T/C (second compound 0.1 µM, first compound 3 µM): 13%
- viability, T/C (second compound 0.316 µM, first compound 0.00949 µM): 38%
- viability, T/C (second compound 0.316 µM, first compound 0.03 µM): 31.8%
- viability, T/C (second compound 0.316 µM, first compound 0.0949 µM): 29.5%
- viability, T/C (second compound 0.316 µM, first compound 0.3 µM): 24.1%
- viability, T/C (second compound 0.316 µM, first compound 0.949 µM): 20.4%
- viability, T/C (second compound 0.316 µM, first compound 3 µM): 11.6%
- viability, T/C (second compound 1 µM, first compound 0.00949 µM): 31.2%
- viability, T/C (second compound 1 µM, first compound 0.03 µM): 28.2%
- viability, T/C (second compound 1 µM, first compound 0.0949 µM): 24.8%
- viability, T/C (second compound 1 µM, first compound 0.3 µM): 23%
- viability, T/C (second compound 1 µM, first compound 0.949 µM): 17.5%
- viability, T/C (second compound 1 µM, first compound 3 µM): 10.5%
- viability, T/C (second compound 3.16 µM, first compound 0.00949 µM): 25%
- viability, T/C (second compound 3.16 µM, first compound 0.03 µM): 22.6%
- viability, T/C (second compound 3.16 µM, first compound 0.0949 µM): 20.6%
- viability, T/C (second compound 3.16 µM, first compound 0.3 µM): 18.4%
- viability, T/C (second compound 3.16 µM, first compound 0.949 µM): 14.5%
- viability, T/C (second compound 3.16 µM, first compound 3 µM): 7.58%
- viability, T/C (second compound 10 µM, first compound 0.00949 µM): 18.9%
- viability, T/C (second compound 10 µM, first compound 0.03 µM): 16.9%
- viability, T/C (second compound 10 µM, first compound 0.0949 µM): 13.8%
- viability, T/C (second compound 10 µM, first compound 0.3 µM): 13.1%
- viability, T/C (second compound 10 µM, first compound 0.949 µM): 8.94%
- viability, T/C (second compound 10 µM, first compound 3 µM): 4.82%
